Assay results taken from patent publication US20090123512A1, “Quorum Sensing Modulators” (priority 2005, published 2009).

Test system: MW1
Experiment: Elastase production in culture supernatant, MW1
Format: cell-based, Pseudomonas aeruginosa
Protocol: Elastase activity was measured according to the procedure described by Pearson et al. in J. Bacteriol. 179:5756-67 (1997) and pyocyanin concentration was measured according to the procedure described by Essar et al. in J. Bacteriol. 172:884-900 (1990). Protocols were modified slightly to be consistent with the conditions of transcriptional profiling. Cultures were grown in LB amended with 50 mM MOPS pH 7.0. Mid-log cultures were either subcultured directly (MW1) or washed twice with medium (PAO1) and then subcultured to an absorbance at 600 nm (A600) of 0.01. Cultures (1 mL) were grown in the presence of test compounds in 16 mm tubes at 37° C., 250 rpm.
For elastase activity, cultures were grown for 6 hours. Cells were removed by centrifugation and the culture supernatant filtered through a 0.2 μm filter. A 100 μL volume of filtered supernatant was added to 900 μL of 5 mg/mL Elastin Congo Red (Elastin Products Company; Owensville, Mo.) in 1 mM CaCl2, 100 mM Tris HCL, pH 7.2. Reactions were incubated at 37° C., 250 rpm for 18 h. Reactions were stopped by the addition of 100 μL 0.12 M EDTA, undigested substrate removed through centrifugation and the absorbance at 495 nm measured.

SMILES | elastase activity in supernatant restored by exogenous signal (MW1, 0.3 μM (half-maximal) 3-oxo-C12-HSL alone) | elastase activity in supernatant restored by exogenous signal (MW1, saturating 3-oxo-C12-HSL (25 μM) in addition to saturating C4-HSL (25 μM)) | elastase activity in supernatant restored by exogenous signal (MW1, 25 μM C4-HSL added to 0.3 μM 3-oxo-C12-HSL)
CCCCCCCCCC(=O)CC(=O)NC1CCOC1=O (stereo not drawn) [3-oxo-C12-HSL, 3-oxo-dodecanoyl homoserine lactone] | restored about one third of the achievable activity | did not increase elastase activity further | –
CCCC(=O)N[C@H]1CCOC1=O [Compound C4-HSL, butyryl homoserine lactone] | – | – | maximal elastase activity was measured
